Laboratory results taken from patent US12503432B2, “Ionizable lipids for nucleic acid delivery” (Global Life Sciences Solutions Canada ULC, priority 2019, dated 2025).

Key:
[1] = LNP characterization: size and PDI by dynamic light scattering, mRNA encapsulation efficiency by RiboGreen assay; assay type: physicochemical
Protocol: Particle sizes and “polydispersity index” (PDI) of the lipid particle were measured by dynamic light scattering (DLS). PDI indicates the width of the particle distribution. This is a parameter calculated from a cumulative analysis of the (DLS)-measured intensity autocorrelation function assuming a single particle size mode and a single exponential fit to the autocorrelation function. […] The particles produced by mechanical micromixers such as the NanoAssemblr® Spark™ and NanoAssemblr® Benchtop (Precision NanoSystems Inc.) are substantially homogeneous in size assuming all other variables are neutral. A lower PDI indicates a more homogenous population of lipid particles. The Spark™ instrument is used in a screening setting to identify the lead compositions. Once the composition is selected, the lipid particle can be fine-tuned using the NanoAssemblr® Benchtop. Once the process parameters Flow Rate Ratio and Total Flow Rate is identified for the specific nanoparticle composition, the nanoparticle technology can be scaled up using the same process parameter values.
Lipid particles were also manufactured by a larger microfluidic mixer instrument, the NanoAssemblr® Ignite™ for testing. Briefly, 350 μL of mRNA was diluted using 100 mM sodium acetate buffer to the required concentration of 0.2 to 0.3 mg/mL. Lipid particle samples were then prepared by running both fluids, namely, nucleic acids in aqueous solvent and Lipid Mix in ethanol at a flow ratio of 3:1 and at a total flow rate of 12 ml/min in the microfluidic mixer. Following mixing in the microfluidic device, the post cartridge lipid nucleic acid particle sample was diluted into RNAse free tubes containing three to 40 volumes of phosphate buffered saline (PBS), pH 7.4. Ethanol was finally removed through dialysis in PBS, pH 7, or using Amicon™ centrifugal filters (Millipore, USA) at 3000 RPM, or using TFF systems. Once the required concentration was achieved, the lipid nucleic acid particles were filter sterilized using 0.2 μm filters in aseptic conditions. Final encapsulation efficiency was measured by the Ribogreen™ assay. Quant-iT™ RiboGreen® RNA Reagent and Kit (Invitrogen) following manufacturer directions.
Messenger RNA or plasmid nucleic acid therapeutic (NAT) as described below, was diluted using sodium acetate buffer to the required concentration. Lipid nucleic acid particle (LNAP) samples were then prepared by running both fluids using the NanoAssemblr® Spark instrument. Briefly, […] of nucleic acids in 100 mM sodium acetate buffer in a total volume of 32 μL was mixed with 16 μL of 37.5 mM lipid mix solution as required by the N/P ratios (4, 6, or 10 in illustrated examples). The microfluidically mixed lipid nucleic acid particles (LNAP) made in the instrument were immediately diluted down with 48 μL Ca++ and Mg++ free 1× PBS at pH 7.4 in the aqueous output well. These LNAP were immediately collected into microcentrifuge tubes containing 96 μL of the same buffer at pH 7.4. Encapsulation efficiency was measured by a modified Ribogreen™ assay (Quanti-iT RiboGreen™ RNA assay kit, Fisher). This information was used to establish the desired dosage.
After the lipid particles were made as described in Example 17, particle size (hydrodynamic diameter of the particles) was determined by Dynamic Light Scattering (DLS) using a ZetaSizer™ Nano ZS™ (Malvern Instruments, UK). He/Ne laser of 633 nm wavelength was used as the light source. Data were measured from the scattered intensity data conducted in backscattering detection mode (measurement angle=173). Measurements were an average of 10 runs of two cycles each per sample. Z-Average size was reported as the particle size, and is defined as the harmonic intensity averaged particle diameter. These LNP characteristics, as well as the results of the mRNA encapsulation efficiency for various Lipid Mixes are also described in the application are shown in Tables 4, 5 and 6. […]

[2] = TNS fluorescence assay: experimental pKa of formulated lipid nanoparticles; assay type: physicochemical; details: experimental surface pKa of empty LNP, cationic lipid/DSPC/cholesterol/PEG-lipid (50/10/38.5/1.5)
Protocol: The pKa of each cationic lipid was determined in lipid nanoparticles using an assay based on fluorescence of 6-(p-Toluidino)-2-naphthalenesulfonic acid sodium salt (TNS, Sigma Aldrich), which is a fluorescent probe for the conformational state of proteins^5. Empty lipid nanoparticles comprising of cationic lipid/DSPC/cholesterol/PEG-lipid (50/10/38.5/1.5) in distilled water at a concentration of 3.125 mM total lipid are formulated using NanoAssemblr® Spark™, and were then was characterized for LNP quality on the Zetasizer™ using a 30× dilution with 1×PBS in the low volume cuvette. Lipid nanoparticles were further diluted 4× using distilled water to 0.781 mM total lipid. TNS was prepared as a 25 μM stock solution in distilled water. Then 6.4 μL of diluted LNP samples of 0.781 mM total lipid were mixed with 10 μL of diluted TNS to a final volume of 250 μL with buffer containing 10 mM HEPES, 10 mM MES, 10 mM NH4OAc and 130 mM NaCl where the pH ranged from 3 to 9 in 0.5 pH increments.
Samples were mixed thoroughly, and the fluorescence intensity was measured at room temperature in a BioTek™ Synergy™ H1 Hybrid Multi-Mode Monochromator™ Fluorescence Microplate Reader using excitation and emission wavelengths of 321 nm and 445 nm respectively. A sigmoidal best fit analysis was applied to the fluorescence data using GraphPad Prism™ software, and the pKa was measured as the pH at half-maximal fluorescence intensity.

[3] = 5-moU EPO encoded LNPs, IL:DSPC:cholesterol:DMG-PEG (50:10:38.5:1.5), N/P 6
[4] = OVA encoded LNPs, payload WT OVA, LM02, N/P 8
[5] = Table 4 LNPs, payload and lipid mix not stated
[6] = OVA encoded LNPs, payload 5-moU OVA, LM02, N/P 8

Row | SMILES | Diameter (Z. ave, nm) [1, 3] [nm] | Encapsulation Efficiency (%) [1, 3] [%] | Polydispersity Index (PDI) [1, 3] | Diameter (Z. ave, nm) [1, 4] [nm] | Encapsulation Efficiency (%) [1, 4] [%] | Polydispersity Index (PDI) [1, 4] | Diameter (Z. ave, nm) [1, 5] [nm] | Encapsulation Efficiency (%) [1, 5] [%] | Polydispersity Index (PDI) [1, 5] | pKa [2] | Diameter (Z. ave, nm) [1, 6] [nm] | Encapsulation Efficiency (%) [1, 6] [%] | Polydispersity Index (PDI) [1, 6]
1 | CC/C=C\CC1C(CC(=O)OCC(COCCCCCCCC/C=C\C/C=C\CCCCC)OCCCCCCCC/C=C\C/C=C\CCCCC)CCC1OC(=O)CCCN(C)C (centres unmarked) [PNI 101] | 97.7 | 93.4 | 0.08 | 93.2 | 98.4 | 0.09 | 74.10 | 93.0 | 0.156 | 6.37 |  |  | 
2 | CC/C=C\CC1C(CC(=O)OCC(COCCCCCCCC/C=C\C/C=C\CCCCC)OCCCCCCCC/C=C\C/C=C\CCCCC)CCC1OC(=O)C1(C)CCN(C)CC1 (centres unmarked) [PNI 123] | 76.6 | 97.3 | 0.04 | 96.5 | 76.1 | 0.03 | 124.7 | 60.1 | 0.054 | 6.01 |  |  | 
3 | CC/C=C\CC1C(CC(=O)OCC(COCCCCCCCC/C=C\C/C=C\CCCCC)OCCCCCCCC/C=C\C/C=C\CCCCC)CCC1OC(=O)C1CCN(C)CC1 (centres unmarked) [PNI 132] | 70.3 | 98.2 | 0.04 | 82.6 | 97.1 | 0.07 | 74.5 | 98.2 | 0.06 | 6.1 |  |  | 
4 | CC/C=C\CC1C(CC(=O)OCC(COCCCCCCCC/C=C\C/C=C\CCCCC)OCCCCCCCC/C=C\C/C=C\CCCCC)CCC1OC(=O)CCCN(CC)CC (centres unmarked) [PNI 542] | 68.5 | 98.7 | 0.02 | 74.6 | 98.7 | 0.01 | 79.4 | 98.8 | 0.04 | 6.11 |  |  | 
5 | CCCCCCCCC1CC1CCCCCCCCOCC(COC(=O)CC1CCC(OC(=O)CCCN(C)C)C1CC1CC1CC)OCCCCCCCCC1CC1CCCCCCCC (centres unmarked) [PNI 545] | 59.0 | 98.6 | 0.04 |  |  |  | 63.9 | 98.4 | 0.07 | 5.91 |  |  | 
6 | CC/C=C\CC1C(CC(=O)OCCC(CCCCCCCC)OC(=O)C(CCCCCC)CCCCCCCC)CCC1OC(=O)CCN(C)C (centres unmarked) [PNI 554] | 55.4 | 97.5 | 0.09 |  |  |  | 55.1 | 96.6 | 0.06 | 5.52 |  |  | 
7 | CC/C=C\CC1C(CC(=O)OCC(COCCCCCCCC/C=C\C/C=C\CCCCC)OCCCCCCCC/C=C\C/C=C\CCCCC)CCC1OC(=O)CC1CCN(C)C1 (centres unmarked) [PNI 557] | 71.8 | 98.9 | 0.08 |  |  |  | 95.4 | 98.7 | 0.02 | 6.7 |  |  | 
8 | CC/C=C\CC1C(CC(=O)OCC(COCCCCCCCC/C=C\C/C=C\CCCCC)OCCCCCCCC/C=C\C/C=C\CCCCC)CCC1OC(=O)CCCN1CCCC1 (centres unmarked) [PNI 558] | 73.2 | 98.9 | 0.03 |  |  |  | 91.2 | 98.7 | 0.07 | 6.28 |  |  | 
9 | CC/C=C\CC1C(CC(=O)OCC(COCCCCCCCC/C=C\C/C=C\CCCCC)OCCCCCCCC/C=C\C/C=C\CCCCC)CCC1OC(=O)CC1CCCCN1C (centres unmarked) [PNI 559] | 64.6 | 97.3 | 0.03 |  |  |  | 59.4 | 95.9 | 0.07 | 5.16 |  |  | 

The next lines start with the values.

Row | Diameter (Z. ave, nm) [1, 3] [nm] | Encapsulation Efficiency (%) [1, 3] [%] | Polydispersity Index (PDI) [1, 3] | Diameter (Z. ave, nm) [1, 4] [nm] | Encapsulation Efficiency (%) [1, 4] [%] | Polydispersity Index (PDI) [1, 4] | Diameter (Z. ave, nm) [1, 5] [nm] | Encapsulation Efficiency (%) [1, 5] [%] | Polydispersity Index (PDI) [1, 5] | pKa [2] | Diameter (Z. ave, nm) [1, 6] [nm] | Encapsulation Efficiency (%) [1, 6] [%] | Polydispersity Index (PDI) [1, 6] | SMILES
10 | 69.0 | 98.7 | 0.02 | 75.9 | 98.6 | 0.02 | 68.5 | 98.7 | 0.12 | 6.18 | 76.5 | 98.2 | 0.04 | CC/C=C\CC1C(CC(=O)OC(CCCCCCCCC2CC2CCCCCCCC)CCCCCCCCC2CC2CCCCCCCC)CCC1OC(=O)CCCN(C)C (centres unmarked) [PNI 516]
11 | 62.3 | 97.6 | 0.05 |  |  |  | 51.3 | 97.9 | 0.04 | 5.68 |  |  |  | CC/C=C\CC1C(CC(=O)OCC(COCCCCCCCCC2CC2CCCCCCCC)OCCCCCCCCC2CC2CCCCCCCC)CCC1OC(=O)CCN(C)C (centres unmarked) [PNI 544]
12 | 56.9 | 96.3 | 0.09 |  |  |  | 64.0 | 96.3 | 0.03 | 4.84 |  |  |  | CCCCCCCCC1CC1CCCCCCCCOCC(COC(=O)CC1CCC(OC(=O)CCN(C)C)C1CC1CC1CC)OCCCCCCCCC1CC1CCCCCCCC (centres unmarked) [PNI 546]
13 | 62.5 | 97.4 | 0.06 |  |  |  | 71.2 | 96.4 | 0.05 | 5.27 |  |  |  | CC/C=C\CC1C(CC(=O)OC(CCCCCCCCC2CC2CCCCCCCC)CCCCCCCCC2CC2CCCCCCCC)CCC1OC(=O)CCN(C)C (centres unmarked) [PNI 549]
14 | 63.1 | 98.7 | 0.06 | 76.7 | 97.7 | 0.05 | 60.5 | 98.4 | 0.06 | 5.7 |  |  |  | CC/C=C\CC1C(CC(=O)OC(CCCCCCCCC2CC2CCCCCCCC)CCCCCCCCC2CC2CCCCCCCC)CCC1OC(=O)C1(C)CCN(C)CC1 (centres unmarked) [PNI 560]
